Assay [1] addresses Carbonic anhydrase 12 (Homo sapiens, UniProt O43570). In words: Inhibition of human CA12 pre-incubated for 15 mins by stopped-flow CO2 hydration method.
Assay [2] deals with Carbonic anhydrase 9 (Homo sapiens, UniProt Q16790). In words: Inhibition of human CA9 pre-incubated for 15 mins by stopped-flow CO2 hydration method.
The target in assay [3] is Carbonic anhydrase 1 (Homo sapiens, UniProt P00915). In words: Inhibition of human CA1 pre-incubated for 15 mins by stopped-flow CO2 hydration method.
Sequence of Carbonic anhydrase 1 (P00915 whole entry): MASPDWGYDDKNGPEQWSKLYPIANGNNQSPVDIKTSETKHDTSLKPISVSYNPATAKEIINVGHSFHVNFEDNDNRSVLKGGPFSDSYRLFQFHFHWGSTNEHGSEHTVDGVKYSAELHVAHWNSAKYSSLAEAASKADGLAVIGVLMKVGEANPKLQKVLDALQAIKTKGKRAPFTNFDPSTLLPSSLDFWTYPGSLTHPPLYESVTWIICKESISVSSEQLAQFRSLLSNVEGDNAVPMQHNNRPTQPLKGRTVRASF
The target in assay [4] is Carbonic anhydrase 2 (Homo sapiens, UniProt P00918). Briefly: Inhibition of human CA2 pre-incubated for 15 mins by stopped-flow CO2 hydration method.
The subject of assay [5] is Oryctolagus cuniculus. Briefly: Antiglaucoma activity in carbomer-induced glaucoma in albino rabbit assessed as reduction in intra ocular pressure dosed as 2% compound solution. Conditions: Eye, TDE = time-dependent effect. Format: functional, organism-based.
The test system of assay [6] is Oryctolagus cuniculus. Briefly: Antiglaucoma activity in carbomer-induced glaucoma in albino rabbit assessed as reduction in intra ocular pressure dosed as 2% compound solution measured 2 hrs post dose (vehicle treated contralateral eye Rvb = 37 to 40 mmHg). Format: functional.
The test system of assay [7] is Oryctolagus cuniculus. Briefly: Antiglaucoma activity in carbomer-induced glaucoma in albino rabbit assessed as reduction in intra ocular pressure dosed as 2% compound solution measured 3 to 4 hrs post dose. Format: functional, organism-based. Conditions: Eye.
Assay [8] has as its system Oryctolagus cuniculus. Briefly: Antiglaucoma activity in carbomer-induced glaucoma in albino rabbit assessed as reduction in intra ocular pressure dosed as 2% compound solution measured 2 hrs post dose (vehicle treated contralateral eye Rvb = 37 to 39 mmHg). Format: functional.

The source of these data is ChEMBL document CHEMBL2021877, “Dithiocarbamates strongly inhibit carbonic anhydrases and show antiglaucoma action in vivo” (J Med Chem, 2012).

The structures appear in SMILES notation. Counter-ions that a name gives are not always drawn. Active and inactive are the calls of the source. The rule behind the calls is not given here.

Sequence of Carbonic anhydrase 12 (O43570 whole entry): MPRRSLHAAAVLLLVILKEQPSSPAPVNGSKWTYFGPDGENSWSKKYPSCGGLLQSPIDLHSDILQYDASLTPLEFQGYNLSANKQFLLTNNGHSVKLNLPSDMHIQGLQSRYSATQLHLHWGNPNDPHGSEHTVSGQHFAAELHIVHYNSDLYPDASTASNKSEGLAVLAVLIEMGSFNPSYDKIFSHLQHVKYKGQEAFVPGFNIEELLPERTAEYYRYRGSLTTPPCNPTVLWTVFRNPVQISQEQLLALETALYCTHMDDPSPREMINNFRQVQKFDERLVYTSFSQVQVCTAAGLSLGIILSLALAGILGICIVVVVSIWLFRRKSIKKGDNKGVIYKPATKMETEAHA

Regarding `S=C(S)N1CCCC1`, the inhibitory constant (Ki) (in general, the equilibrium dissociation constant of an inhibitor or competing ligand from its target) in assay [1] is 46.1 nM; in assay [2] it was 70.4 nM; in assay [3], 0.96 nM; in assay [4], 27.5 nM.

As for `CN1CCN(NC(=S)S)CC1`, the Ki in assay [2] amounted to 22.1 nM.

Turning to `S=C(S)NCCN1CCOCC1`, affinity in assay [2] was put at a Ki of 4.5 nM.

As to `S=C(S)NCCN(CCNC(=S)S)CCNC(=S)S`, in assay [2], the affinity, expressed as Ki, was 27.4 nM.

Molecule `S=C(S)NCc1ccncc1` showed a Ki in assay [2] of 26 nM.

`S=C(S)NCCN1CCCCC1` displayed an inhibition constant (Ki) in assay [2] of 3.6 nM.

In assay [2], `S=C(S)Nc1nccs1` came in with an inhibition constant Ki of 12.6 nM.

On to `O=C(O)CNC(=S)S`, for which the Ki in assay [2] turned out to be 57.1 nM.

Consider `S=C(S)NCCCn1ccnc1`, for which the affinity in assay [2], expressed as Ki, was 4.3 nM.

As for `OCCN(CCO)C(=S)S`, in assay [2], the Ki was 4.3 nM.

In assay [2], `N#CC1(c2ccccc2)CCN(C(=S)S)CC1` yielded a Ki of 757 nM.

With `O=C(O)[C@@H]1CCCN1C(=S)S`, the inhibition constant (Ki) in assay [2] is 4.1 nM.

In the case of `CCC(C)NC(=S)S` (racemic), affinity in assay [2] was put at a Ki of 4.6 nM.

In assay [2], `CCCCN(CCCC)C(=S)S` [DIBUTYLCARBAMODITHIOATE SODIUM SALT] gave an inhibition constant (Ki) of 50.3 nM.

For `CCCCCCN(CCCCCC)C(=S)S` [DIHEXYLCARBAMODITHIOATE SODIUM SALT], the inhibitory constant (Ki) in assay [2] was determined as 27.4 nM.

Turning to `CC(C)CN(CC(C)C)C(=S)S` [DIISOBUTYLCARBODITHIOIC ACID SODIUM SALT], the affinity in assay [2], expressed as Ki, was 4.5 nM.

Consider `CCCN(CCC)C(=S)S` [DIPROPYLCARBAMODITHIOATE SODIUM SALT], for which the Ki in assay [2] was found to be 53.8 nM.

With `CCN(CC)C(=S)S` [DITIOCARB SODIUM], the Ki in assay [1] was 1100 nM; in assay [2] it was 1410 nM.

In assay [2], `CCCCN(CC)C(=S)S` [ETHYLBUTYLCARBAMODITHIOATE SODIUM SALT] had an inhibition constant Ki of 25.9 nM.

`S=C([S-])N1CCOCC1.[Na+]` [MORPHOLINECARBAMODITHIOATE SODIUM SALT]: in assay [2], the Ki is 6.2 nM. Further, the Activity result was “tde” in assay [5] and 6 mmHg in assay [6]. The outcome in assay [7] was Active.

For the molecule `S=C([S-])N1CCN(C(=S)[S-])CC1.[Na+].[Na+]` [PIPERAZINECARBAMODITHIOATE DISODIUM SALT], in assay [2], the affinity corresponds to a Ki of 37.5 nM. For the same molecule, the Activity entry in assay [5] was “tde”; in assay [8], 6 mmHg. Moreover, the result in assay [7] was Active.

Molecule `S=C(S)NN1CCOCC1` [POTASSIUM MORPHOLINOCARBAMODITHIOATE] gave a Ki in assay [2] of 29.1 nM.

For the molecule `CN(Cc1ccccc1)C(=S)S` [SODIUM BENZYL(METHYL)CARBAMODITHIOATE], the Ki in assay [2] was determined as 53 nM.

Regarding `S=C(S)NCc1ccccc1` [SODIUM BENZYLCARBAMODITHIOATE], in assay [2], the Ki was 19.2 nM.

Turning to `CN(C)C(=S)S` [SODIUM DIMETHYLCARBAMODITHIOATE], the inhibition constant (Ki) was determined as 798 nM in assay [1], 714 nM in assay [2], 699 nM in assay [3] and 6910 nM in assay [4].

Take `CN(C(=S)S)c1ccccc1` [SODIUM METHYL(PHENYL)CARBAMODITHIOATE]: the affinity in assay [2], expressed as Ki, was 28.2 nM.

On to `S=C(S)Nc1ccccc1` [TRIETHYLAMMONIUM PHENYLCARBAMODITHIOATE], for which affinity in assay [2] was put at a Ki of 4.2 nM.
